In PMC9905731, “PIN1 and PIN4 inhibition via parvulin impeders Juglone, PiB, ATRA, 6,7,4′-THIF, KPT6566, and EGCG thwarted hepatitis B virus replication” (Frontiers in Microbiology, 2023):
Read-outs that look alike come from different tables or passages of the source.

Key:
[1] = MTT cell cytotoxicity assay; type: cell-based; settings: human, Huh7, HepAD38, HepG2, HepG2.2.15 cells, cell line not stated, read-out: 50% cytotoxic concentration (CC50)
Experimental: Since PIN1 and PIN4 were highly expressed in HCC cells, we speculated that the inhibition of parvulins via Juglone, PiB, ATRA, 6,7,4′-THIF, KPT6566, and EGCG might affect HBV replication (Figure 2A). The optimum dosage was determined in several HCC cell lines. Compared to mock or solvent-treated 10, 20, 30, 50, or 100 μM, drug-treated cell viabilities were determined by the MTT assay in Huh7, HepAD38, HepG2, and HepG2.2.15 cells (Figure 2B). The data from triplicate experiments were used to examine 50% cytotoxic concentration (CC50) of Juglone, PiB, ATRA, 6,7,4′-THIF, KPT6566, and EGCG via the GraphPad Prism software (Figure 2C). The CC50 values for Juglone and PiB were 30 and 40 μM, respectively. […] However, KPT6566 and EGCG depicted 45 and 80 μM as CC50 values, respectively. We optimized the effects of Juglone and PiB parvulin inhibitors in diverse HBV replicating HCC cell lines at 20 μM concentration. In addition, 30 μM concentrations were used to determine the effects of ATRA, 6,7,4′-THIF, and KPT6566 on HBV replication. While a 40 μM concentration of EGCG was optimized for determining the effects on HBV replication in multiple HCC cell lines.
Figure 2 MTT assay to measure the cytotoxicity of parvulin inhibitors (Juglone, PiB, ATRA, 6,7,4′-THIF, KPT6566, and EGCG). (A) The chemical structures of parvulin inhibitors including Juglone, PiB, ATRA, 6,7,4′-THIF, KPT6566, and EGCG are shown. (B) Huh7, HepAD38, HepG2, and HepG2.2.15 cells were exposed to varying concentrations (10 μM, 20 μM, 30 μM, 50 μM, and 100 μM) of inhibitors Juglone, PiB, ATRA, 6,7,4′-THIF, KPT6566, and EGCG for 48 h and values were determined via MTT assay. (C) The concentrations of Juglone, PiB, ATRA, 6,7,4′-THIF, KPT6566, and EGCG at which cell viability was reduced to 50% (CC50) to that of the control (cells treated by the solvent) were determined. TEXT PRINTED IN THE PICTURE: (C) Juglone: CC50: 30 | (C) PiB: CC50: 40 | (C) ATRA: CC50: 45 | (C) 6,7,4 THIF: CC50: 50 | (C) KPT6566: CC50: 45 | (C) EGCG: CC50: 80 DOUBTS OF THE COPYIST ABOUT THIS PICTURE: All CC50 labels in panel C are printed small and blurred, and no unit is printed with them / Juglone, CC50: 30 or 50 / ATRA, CC50: 45 or 46 / 6,7,4 THIF, CC50: 50 or 60 / KPT6566, CC50: 45 or 46 / EGCG, CC50: 80 or 30, first digit partly overlapped by an error bar
The cytotoxic effects of parvulin inhibitors (Juglone, PiB, ATRA, 6,7,4′-THIF, KPT6566, and EGCG) via MTT (3-[4,5-dimethylththiazol-2-yl]-2,5-diphenyltetrazolium bromide) assay were determined in Huh7, HepAD38, HepG2, and HepG2.2.15 cell lines. The cells were grown in 96-well microplates and incubated with serial dilutions of Juglone, PiB, ATRA, 6,7,4′-THIF, KPT6566, or EGCG for 48 h at 37°C. The cellular viabilities were examined after replacing the culture medium with 100 μl of MTT in DMEM. After 3 h, 100 μl of DMSO was added to dissolve the formazan of MTT. The absorbance value was measured at 570 nm via plate reader. Afterward, the concentrations of Juglone, PiB, ATRA, 6,7,4′-THIF, KPT6566, and EGCG at which cell viability was reduced to 50% (CC50) to that of the control were determined.

[2] = tested on: HBV replication in Huh7, HepAD38, HepG2, and HepG2.2.15 cells; type: cell-based, hepatitis B virus
PIN1 = target: T1, PIN1 (Homo sapiens, UniProt Q13526); assay: PIN1 expression by immunoblotting in HCC cells; type: cell-based; settings: 30 μM ATRA, 72 h
T1 construct: Since the endogenous PIN1 and PIN4 levels remained higher in HBV replicating and non-replicating HCC-derived cell lines; endogenous in cells; host or cells: Huh7, HepAD38, HepG2, HepG2.2.15 (human HCC cell lines)

PIN4 = PIN4 (Homo sapiens, UniProt Q9Y237); assay: PIN4 expression by immunoblotting in HCC cells; type: cell-based; settings: 30 μM ATRA, 72 h
[3] = 72 h, 20 μM Juglone or PiB, 30 μM ATRA, 6,7,4′-THIF or KPT-6566, 40 μM EGCG, vs solvent

T1 sequence (Q13526 whole entry): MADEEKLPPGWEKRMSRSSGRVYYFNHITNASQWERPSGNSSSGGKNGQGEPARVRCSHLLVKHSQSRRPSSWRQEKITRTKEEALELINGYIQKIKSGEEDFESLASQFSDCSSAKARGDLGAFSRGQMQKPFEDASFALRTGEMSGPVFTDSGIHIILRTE
PIN4, sequence (Q9Y237 whole entry): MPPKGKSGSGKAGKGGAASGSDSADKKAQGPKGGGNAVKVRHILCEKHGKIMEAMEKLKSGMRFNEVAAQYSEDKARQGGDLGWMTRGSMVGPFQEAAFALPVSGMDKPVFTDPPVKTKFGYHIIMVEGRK

Compound | CC50 at 48 h [1] | HBV RNA levels / HBV transcription (Northern blotting) [2, 3] | HBc expression, core particle synthesis and HBV DNA levels [2, 3] | HBV RNA levels / HBV transcription (Northern blotting) [2] | HBc expression, core particle synthesis and HBV DNA levels [2] | expression level of PIN1 (PIN1) | expression level of PIN4 (PIN4)
O=c1c(-c2ccc(O)cc2)coc2cc(O)c(O)cc12 [6,7,4′-THIF, 6,7-dihydroxy-3-(4-hydroxyphenyl)-4H-chromen-4-one] | 50 µM | significantly aborted | significantly aborted |  |  |  | 
CC1=C(/C=C/C(C)=C/C=C/C(C)=C/C(=O)O)C(C)(C)CCC1 [ATRA, All-trans-retinoic acid] | 45 µM |  |  | reduced | reduced | reduced | reduced
O=C(O[C@@H]1Cc2c(O)cc(O)cc2O[C@@H]1c1cc(O)c(O)c(O)c1)c1cc(O)c(O)c(O)c1 [EGCG, Epigallocatechin gallate] | 80 µM | lower levels | reduced significantly |  |  |  | 
O=C1C=CC(=O)c2c(O)cccc21 [Juglone, 5-hydroxyl-1,4-naphthoquinone] | 30 µM | significantly decreased | dramatically reduced |  |  |  | 
CC(C)(C)c1ccc(S(=O)(=O)N=C2C=C(SCC(=O)O)C(=O)c3ccccc32)cc1 [KPT6566, 2-[[4-[[[4-(1,1-dimethylethyl)phenyl]sulfonyl]imino]-1,4-dihydro-1-oxo-2-naphthalenyl]thio] acetic acid] | 45 µM | restricted | restricted |  |  |  | 
CCOC(=O)CN1C(=O)c2ccc3c4c(ccc(c24)C1=O)C(=O)N(CC(=O)OCC)C3=O [PiB, 1,3,6,8-tetrahydro-1,3,6,8-tetraoxo-benzo [lmn][3,8] phenanthroline-2,7-diacetic acid, 2,7-diethyl ester] | 40 µM | significantly reduced | notably abrogated |  |  |  | 
